{
  "source": "patent US20210386791A1",
  "about": "“METHODS OF CELLULAR REPROGRAMMING” (TissueTech, Inc., priority 2018, published 2021)",
  "type_in_all_cases": "cell-based",
  "key": {"[1]": {"tested_on": "human corneal fibroblasts (HCF)", "experiment": "Timing course analysis of SDF1/CXCR4 and BMP signaling in HCF", "details": "time course"}, "[2]": {"tested_on": "human corneal myofibroblasts", "experiment": "Reversal of TGFβ1-induced human corneal myofibroblasts on immobilized HC-HA/PTX3", "details": "day 4 and day 7", "protocol": "HCF were cultured in DMEM+10% FBS until 70% confluence. The cells were serum-starved for 1 day and treated with 10 ng/ml TGFβ1 for 3 days to induce myofibroblasts.\nTo reverse fibroblasts or myofibroblasts into keratocytes, fibroblasts or myofibroblasts were cultured on immobilized HC-HA/PTX3 in DMEM+10% FBS for 3 days using the samples from the cells on plastic and HA as the controls. Some of the cell cultures were extended to up to 7 days of culture to monitor the expression of α-SMA formation. […]\nThe samples of human corneal fibroblasts, myofibroblasts and corneal keratocytes were air-dried and fixed in 4% formaldehyde, pH 7.0, for 15 min at room temperature, rehydrated in PBS, incubated with 0.2% Triton X-100 for 15 min, and rinsed 3 times with PBS for 5 min each. […] The samples were then counterstained with Hoechst 33342 and analyzed in Zeiss LSM 700 confocal microscope (Thornhood, N.Y.). […]\nCell lysates were prepared in RIPA buffer and resolved on 4-15% (w/v) gradient acrylamide gels under denaturing and reducing conditions for Western blotting. […] Immunoreactive proteins were detected with Western Lighting Chemiluminescence (PerkinElmer, Waltham, Mass.)."}, "[3]": {"tested_on": "human corneal fibroblasts (HCF)", "experiment": "Reversal of HCF to keratocytes on immobilized HC-HA/PTX3 with or without SB431542 or AMD3100", "details": "day 1 up to 7 days", "protocol": "A total of 86 human corneas from individuals aged 18-76 years and maintained at 4° C. in Optisol (Chiron Vision, Irvine, Calif.) for less than 7 days after death were obtained from the Florida Lions Eye Bank (Miami, Fla.) and handled according to the declaration of Helsinki. HCF were isolated and cultured. Briefly, the sheets of the epithelium and the endothelium were removed from corneas, the stroma sections were cut into cubes of approximately 1 mm3, incubated in 2 mg/ml collagenase for 16 h at 37° C., and then placed in a culture medium consisting of DMEM supplemented with 10% fetal bovine serum containing […]. The culture medium was refreshed twice a week. The cells cultured to passage 3 were used for all experiments. To reverse fibroblasts or myofibroblasts into keratocytes, fibroblasts or myofibroblasts were cultured on immobilized HC-HA/PTX3 in DMEM+10% FBS for 3 days using the samples from the cells on plastic and HA as the controls. Some of the cell cultures were extended to up to 7 days of culture to monitor the expression of α-SMA formation. Total RNAs were extracted using RNeasy Mini Kit (Qiagen) and reverse-transcribed using High Capacity Reverse Transcription Kit (Applied Biosystems). cDNA was amplified by real-time RT-PCR using specific primer-probe mixtures and DNA polymerase in Quant Studio 5 Real-time PCR System (Applied Biosystems). Real-time RT-PCR profile consisted of 10 min of initial activation at 95° C., followed by 40 cycles of 15 s denaturation at 95° C., and 1 min annealing and extension at 60° C. The genuine identity of each PCR product was confirmed by the size determination using 2% agarose gels followed by ethidium bromide staining together with PCR marker according to EC3 Imaging System (BioImaging System, Upland, Calif.). The samples of human corneal fibroblasts, myofibroblasts and corneal keratocytes were air-dried and fixed in 4% formaldehyde, pH 7.0, for 15 min at room temperature, rehydrated in PBS, incubated with 0.2% Triton X-100 for 15 min, and rinsed 3 times with PBS for 5 min each. […] After three washes with PBS, they were incubated with corresponding Alexa-Fluor-conjugated secondary IgG (all 1:100 dilution) for 60 min. The samples were then counterstained with Hoechst 33342 and analyzed in Zeiss LSM 700 confocal microscope (Thornhood, N.Y.). Corresponding mouse and rabbit sera were used as negative controls for primary monoclonal and polyclonal antibodies, respectively. Cell lysates were prepared in RIPA buffer and resolved on 4-15% (w/v) gradient acrylamide gels under denaturing and reducing conditions for Western blotting. The protein extracts were transferred to the nitrocellulose membrane, which was then blocked with 5% (w/v) fat-free milk in TBST [50 mM Tris-HCl, pH 7.5, 150 mM NaCl, 0.05% (v/v) Tween-20], followed by sequential incubation with the specific primary antibody against keratocan and its respective horseradish peroxidase (HRP)-conjugated secondary antibody using β-actin as the loading control. Immunoreactive proteins were detected with Western Lighting Chemiluminescence (PerkinElmer, Waltham, Mass.)."}},
  "data": [
    {"substance": "hyaluronic acid [HA]", "values": [
      {"measurement": "time of promoted CXCR4 mRNA expression", "setting": "[1]", "result": "not HA"},
      {"measurement": "time to aggregation in HCF", "setting": "[1]", "result": "not HA"},
      {"measurement": "staining of α-SMA", "setting": "[2]", "result": "retained their characteristic staining of α-SMA"},
      {"measurement": "aggregation of HCF", "setting": "[3]", "result": "formed some aggregates"}
    ]}
  ]
}
